# According to patent US7790474B1, “p53 modulators” (Schering Corporation, priority 2005, dated 2010):
# Tested on: DLD-1 human colon adenocarcinoma cells
# Assay: In vivo anti-tumor study, unstaged model
# Set-up: species or system Nude mice
# Details: 10 mpk orally every 12 hours for 31 days, dosing from day 4
# Experimental: Unstaged Model. In this model, the therapy was started immediately after the tumor cells had been inoculated. Nude mice (5-6 week old females) were inoculated with 5×10^6 DLD-1 human colon adenocarcinoma cells on day 1, and randomized on day 3. The dosing of these mice was started on day 4. Groups 1 to 4, having 10 mice in each group, were dosed orally every 12 hours with vehicle,
# [drawing 33] 50 mpk, respectively, for 31 days. All animals were carefully monitored at least daily and each tumor was measured twice a week. The tumor growth inhibition level observed is set forth below in Table 3.
row,Compound,"% inhibition (tumor growth), unstaged model [%]"
1,CN(C)CCCNc1nc(CN2CCN(C(c3ccc(Cl)cc3)c3ccc(Cl)cc3)CC2)nc2ccccc12 [drawing 34],48.30

# Same assay, conditions: 30 mpk orally every 12 hours for 31 days, dosing from day 4
row,Compound,"% inhibition (tumor growth), unstaged model [%]"
1,CN(C)CCCNc1nc(CN2CCN(C(c3ccc(Cl)cc3)c3ccc(Cl)cc3)CC2)nc2ccccc12 [drawing 34],43.23

# Same assay, conditions: 50 mpk orally every 12 hours for 31 days, dosing from day 4
row,Compound,"% inhibition (tumor growth), unstaged model [%]"
1,CN(C)CCCNc1nc(CN2CCN(C(c3ccc(Cl)cc3)c3ccc(Cl)cc3)CC2)nc2ccccc12 [drawing 34],78.96

# Tested on: GST-p53 DNA binding domain (aa 92-aa 312)
# Assay: Scintillation Proximity Assay (displacement of 3H-labeled p53 binder)
# Details: percentage of 3H-labeled ligand remaining bound, number in brackets = average of n
# Experimental: [drawing 38] (^3H at C bearing the chlorophenyl groups and the piperazinyl group), a radiolabeled small molecule which binds to p53, and the GST-p53 DNA binding domain (aa 92-aa 312), a quantitative screening assay was used to determine if various molecules comprise p53 binding activity. The assay is based on Scintillation Proximity Assay (SPA) technology. The complex of GST-p53,
# [drawing 39] and Glutathione-SPA beads (Amersham Biosciences) were incubated with mixing for 1 hour at room temperature in the presence of the compounds to be screened. The signal was read on a Microbeta.
# The numerical values expressed refer to the percentage of labeled
# [drawing 40] remaining bound to the mutant p53 protein after exposure to the indicated compound.
row,Compound,SPA ASSAY % Residual T @ 2 ug/mL of drug (Average of)
1,COC(=O)[C@@H](Nc1nc(CN2CCN(C(=O)NC(c3ccccc3)c3ccccc3)CC2)nc2ccccc12)C(C)C [Formula 12],45.6%
2,CN(C)CCCNc1nc(CN(C)Cc2cccc(F)c2)nc2ccccc12 [Formula 67],64.1%
3,CN(C)CCCNc1nc(CN(C)C2CCC(C#N)(c3ccccc3)CC2)nc2ccccc12 (stereo not drawn) [Formula 109],5.5 (2) %
4,NC(=O)C1CCN(c2nc(CN3CCN(C(c4ccc(Cl)cc4)c4ccc(Cl)cc4)CC3)nc3ccccc23)CC1 [Formula 52],79.9%
5,CN(C)CCCNc1nc(CN(C)Cc2cccc3ccccc23)nc2ccccc12 [Formula 82],52.9%
6,CN(C)CCCNc1nc(CN(C)Cc2ccc3ccccc3c2)nc2ccccc12 [Formula 83],45.9 (3) %
7,Clc1ccc(C(c2ccc(Cl)cc2)N2CCN(Cc3nc(N4CCc5ccccc5C4)c4ccccc4n3)CC2)cc1 [Formula 44],83.9%
8,OC1CCN(c2nc(CN3CCN(C(c4ccc(Cl)cc4)c4ccc(Cl)cc4)CC3)nc3ccccc23)CC1 [Formula 51],61.6%
9,CN(C)CCCNc1nc(CN(C)Cc2cc3ccccc3o2)nc2ccccc12 [Formula 78],45.9 (3) %
10,CN(C)CCCNc1nc(CN(C)Cc2ccco2)nc2ccccc12 [Formula 63],52.7%
11,CN(C)CCCNc1nc(CN(C)C/C=C/c2ccccc2)nc2ccccc12 [Formula 71],68.4%
12,CN(C)CCCNc1nc(CN(C)Cc2ccc(-c3ccccc3)cc2)nc2ccccc12 [Formula 90],68.1%
13,COC(=O)[C@@H](Nc1nc(CNC(=O)Nc2ccccc2-c2ccccc2)nc2ccccc12)C(C)C [Formula 57],52.7%
14,CN(C)CCCNc1nc(CN(C)Cc2ccccc2C#N)nc2ccccc12 [Formula 68],52.7%
15,CN(C)CCCNc1nc(CN(C)Cc2ccoc2)nc2ccccc12 [Formula 64],50.7 (3) %
16,Cc1c(CN(C)Cc2nc(NCCCN(C)C)c3ccccc3n2)sc2ccccc12 [Formula 88],23.6 (3) %
17,CN(C)CCCNc1nc(CN(C)C2CCSC2)nc2ccccc12 (stereo not drawn) [Formula 97],45.0 (3) %
18,COC(=O)[C@@H](Nc1nc(CNC(=O)Nc2ccccc2C(F)(F)F)nc2ccccc12)C(C)C [Formula 54],48.1%
19,CCOC(=O)[C@H](CCN(C)C)Nc1nc(CN2CCN(C(c3ccc(Cl)cc3)c3ccc(Cl)cc3)CC2)nc2ccccc12 [Formula 116],47.7%
20,CN(C)CCCNc1nc(CN2CCN(Cc3cccc4cc[nH]c34)CC2)nc2ccccc12 [Formula 13],37.9%
21,CN(C)CCCNc1nc(CN(C)C2CCC(c3ccccc3)CC2)nc2ccccc12 (stereo not drawn) [Formula 108],21.0 (2) %
22,O=C(C1CCCO1)N1CCN(c2nc(CN3CCN(C(c4ccc(Cl)cc4)c4ccc(Cl)cc4)CC3)nc3ccccc23)CC1 (stereo not drawn) [Formula 48],66.0%
23,COC(=O)[C@@H](Nc1nc(CNC(=O)Nc2ccc(Cl)c(Cl)c2)nc2ccccc12)C(C)C [Formula 55],57.0%
24,COc1ccc(Cl)cc1NC(=O)N(C)Cc1nc(NCCCN(C)C)c2ccccc2n1 [Formula 112],48.4%
25,CN(C)CCCNc1nc(CN(C)Cc2ccccc2OCC(=O)O)nc2ccccc12 [Formula 89],60.1 (3) %
26,CN(C)CCCNc1nc(CN(C)Cc2cccc(C#N)c2)nc2ccccc12 [Formula 69],50.9%

row,Compound,SPA ASSAY % Residual T @ 2 ug/mL of drug (Average of)
1,Clc1ccc(C(c2ccc(Cl)cc2)N2CCN(Cc3nc(N4CCN(c5ccccc5)CC4)c4ccccc4n3)CC2)cc1 [Formula 46],87.5%
2,CN(C)CCCNc1nc(CN2CCN(C(c3ccccc3)c3ccc(OC(F)(F)F)cc3)CC2)nc2ccccc12 (stereo not drawn) [Formula 9],27.9%
3,CN(C)CCCNc1nc(CN(C)C2CCC3CCCCC3C2)nc2ccccc12 (stereo not drawn) [Formula 102],28.7(3) %
4,CC(C)CCN(C)Cc1nc(NCCCN(C)C)c2ccccc2n1 [Formula 61],31.6 (3) %
5,CC(C)C1CCC(N(C)Cc2nc(NCCCN(C)C)c3ccccc3n2)CC1 (stereo not drawn) [Formula 100],13.5 (3) %
6,CN(C)CCCNc1nc(CN(C)Cc2cccc3cc[nH]c23)nc2ccccc12 [Formula 77],25.7%
7,CCN(CC)C(=O)C1CCCN(c2nc(CN3CCN(C(c4ccc(Cl)cc4)c4ccc(Cl)cc4)CC3)nc3ccccc23)C1 (stereo not drawn) [Formula 49],65.7%
8,CN(C)CCCNc1nc(CN(C)CC2CCCCC2)nc2ccccc12 [Formula 111],57.0%
9,CCC(C)(C)C1CCC(N2CCN(Cc3nc(NCCCN(C)C)c4ccccc4n3)CC2)CC1 (stereo not drawn) [Formula 15],38.1%
10,CN(C)CCCNc1nc(CN(C)C2CCCCC2)nc2ccccc12 [Formula 96],45.5 (3) %
11,CN(C)CCCNc1nc(CN(C)Cc2ccc(C#Cc3ccccc3)cc2)nc2ccccc12 [Formula 92],61.1%
12,CN(C)CCCNc1nc(CN(C)Cc2ccccc2)nc2ccccc12 [Formula 35],22.2%
13,CNCc1nc(NCCCN(C)C)c2ccccc2n1 [Formula 36],42.6%
14,COC(=O)[C@@H](Nc1nc(CNC(=O)Nc2cccc(Br)c2)nc2ccccc12)C(C)C [Formula 58],44.9%
15,OC1CCN(c2nc(CN3CCN(C(c4ccc(Cl)cc4)c4ccc(Cl)cc4)CC3)nc3ccccc23)C1 (stereo not drawn) [Formula 42],70.0%
16,CN(C)CCCNc1nc(CN(C)Cc2cccc(C(F)(F)F)c2)nc2ccccc12 [Formula 85],48.4 (3) %
17,CCC(C)CN(C)Cc1nc(NCCCN(C)C)c2ccccc2n1 (stereo not drawn) [Formula 62],50.0 (3) %
18,CN(C)CCCNc1nc(CN(C)C2CCC2)nc2ccccc12 [Formula 95],66.5%
19,CN(C)CC[C@H](Nc1nc(CN2CCN(C(c3ccc(Cl)cc3)c3ccc(Cl)cc3)CC2)nc2ccccc12)C(N)=O [Formula 115],44.8%
20,CC(C)[C@H](Nc1nc(CNC(=O)N[C@H](C)c2ccccc2)nc2ccccc12)C(N)=O [Formula 59],56.8%
21,CN(C)CCCNc1nc(CN2CCN(C(=O)Nc3ccc(Cl)c(Cl)c3)CC2)nc2ccccc12 [Formula 17],29.9%
22,CN(C)CCCNc1nc(CN(C)Cc2ccc(Oc3ccccc3)cc2)nc2ccccc12 [Formula 91],54.0%
23,CCC(C)(C)C1CCC(N2CCN(Cc3nc(NCCCN(C)C)c4ccccc4n3)CC2)C1 (stereo not drawn) [Formula 38],55.7%
24,CN(C)CCCNc1nc(CN2CCN(Cc3cccc4ccccc34)CC2)nc2ccccc12 [Formula 14],27.9%
25,CN(C)CCCNc1nc(CN(C)Cc2ccccc2C(=O)O)nc2ccccc12 [Formula 80],65.6%
